| SMILES | melting point |
| --- | --- |
| C[C@@H](O)c1nccc(N2CCc3nc(-c4ccccc4)ncc3C2)n1 [Example 257] | 128 to 131 °C |
| C[C@@H](O)c1nccc(N2CCn3c(nnc3-c3ccc(-c4ccccc4)cc3)C2)n1 [Example 263] | 123 to 125 °C |
| Cc1nc2c(c(N3CCc4ccccc43)n1)CCN(c1ccnc([C@@H](C)O)n1)C2 [Example 99] | 128 to 131 °C |
| C[C@@H](O)c1nccc(N2CCc3ccc(S(=O)(=O)N(C)C)cc3C2)n1 [Example 247, (R)-2-[2-(1-Hydroxy-ethyl)-pyrimidin-4-yl]-1,2,3,4-tetrahydro-isoquinoline-7-sulfonic acid dimethylamide] | 120.5 to 122 °C |
| C[C@@H](O)c1nccc(N2CCc3c(nc(N)nc3-c3ccccc3)C2)n1 [Example 90] | 225 to 228 °C (dec.) |
| C[C@@H](O)c1nccc(N2CCn3c(nnc3-c3nc4ccccc4s3)C2)n1 [Example 259, (R)-1-[4-(3-Benzothiazol-2-yl-5,6-dihydro-8H-[1,2,4]triazolo[4,3-a]pyrazin-7-yl)-pyrimidin-2-yl]-ethanol] | 216.5 to 218.5 °C |
| O=S(=O)(N1CCCC1)N1CCN(c2ccnc(CO)n2)CC1 [Example 121, {4-[4-(Pyrrolidine-1-sulfonyl)-piperazin-1-yl]-pyrimidin-2-yl}-methanol] | 128 to 131 °C |
| C[C@@H](O)c1nccc(N2CCc3cc(-c4ccsc4)ccc3C2)n1 (stereo in doubt) [Example 248, 1-[4-(6-Thiophen-3-yl-3,4-dihydro-1H-isoquinolin-2-yl)-pyrimidin-2-yl]-ethanol] | 125.5 to 127.5 °C |
| C[C@@H](O)c1nccc(N2CCC(=CC(=O)c3ccccc3)CC2)n1 [Example 179] | 44 to 59 °C |
| Cc1nc2c(c(Sc3ccccc3)n1)CCN(c1ccnc([C@@H](C)O)n1)C2 [Example 98] | 103 to 105 °C |
| C[C@@H](O)c1nccc(N2C[C@@H]3C[C@H]2CN3S(=O)(=O)c2cccs2)n1 [Example 116] | 84 to 86 °C |
| C[C@@H](O)c1nccc(N2CCC(O)(c3ccccc3)CC2)n1 [Example 175, (R)-4-Phenyl-1-[2-(1-hydroxy-ethyl)-pyrimidin-4-yl]-piperidin-4-ol] | 114 °C |
| C[C@@H](O)c1nccc(N2CCc3nc(N)ncc3C2)n1 [Example 256] | 208 to 210 °C |
| Cc1nc2c(c(-c3ccccc3)n1)CCN(c1ccnc([C@@H](C)O)n1)C2 [Example 86, (R)-1-[4-(2-Methyl-4-phenyl-5,8-dihydro-6H-pyrido[3,4-d]pyrimidin-7-yl)-pyrimidin-2-yl]ethanol] | 114 to 116 °C |
| C[C@@H](OC(=O)Cc1nn(Cc2nc3cc(C(F)(F)F)ccc3s2)c(=O)c2ccccc12)c1nccc(N2CCN(c3cnc4ccccc4n3)CC2)n1 [Example 277, (E)-[4-Oxo-3-(5-trifluoromethyl-benzothiazol-2-ylmethyl)-3,4-dihydro-phthalazin-1-yl]-acetic acid 1R-[4-(4-quinoxalin-2-yl-piperazin-1-yl)-pyrimidin-2-yl]-ethyl ester] | 108 to 112 °C |
| C[C@@H](OC(=O)Cc1nn(Cc2nc3cc(C(F)(F)F)ccc3s2)c(=O)c2ccccc12)c1nccc(N2CCN(C(=O)/C=C/c3cccs3)CC2)n1 [Example 276, (E)-[4-Oxo-3-(5-trifluoromethyl-benzothiazol-2-ylmethyl)-3,4-dihydro-phthalazin-1-yl]-acetic acid 1R-{4-[4-(3-thiophen-2-yl-acryloyl)-piperazin-1-yl]-pyrimidin-2-yl}-ethyl ester] | 105 to 109 °C |
| C[C@@H](O)c1nccc(N2CCn3c(nnc3-c3ccc4nccnc4c3)C2)n1 [Example 261] | 212 to 215 °C |
| C[C@@H](O)c1nccc(N2CCn3c(nnc3-c3ccccc3)C2)n1 [Example 260] | 161 to 164 °C |

Further lines, results first:

| melting point | SMILES |
| --- | --- |
| 150.5 to 152 °C | Cc1cc(C)nc(N2C[C@@H](C)N(c3ccnc([C@@H](C)O)n3)[C@@H](C)C2)n1 [Example 27, 1R-{4-[4-(4,6-Dimethyl-pyrimidin-2-yl)-2R,6S-dimethyl-piperazin-1-yl]-pyrimidin-2-yl}-ethanol] |
| 187 to 188 °C | COc1nc(OC)nc(N2[C@H](C)CN(c3ccnc([C@@H](C)O)n3)C[C@@H]2C)n1 [Example 214, 1R-{4-[4-(4,6-Dimethoxy-[1,3,5]triazin-2-yl)-3R,5S-dimethyl-piperazin-1-yl]-pyrimidin-2-yl}-ethanol] |
| 142 to 143 °C | C[C@@H]1CN(c2ccnc([C@@H](C)O)n2)C[C@H](C)N1C(=O)c1cc2cnccc2o1 [Example 132, Furo[3,2-c]pyridin-2-yl-{4-[2-(1R-hydroxy-ethyl)-pyrimidin-4-yl]-2R,6S-dimethyl-piperazin-1-yl}-methanone] |
| 174 to 175 °C | C[C@@H]1CN(c2ccnc([C@@H](C)O)n2)C[C@H](C)N1C(=O)C1CCCCC1 [Example 131, Cyclohexyl-{4-[2-(1R-hydroxy-ethyl)-pyrimidin-4-yl]-2R,6S-dimethyl-piperazin-1-yl}-methanone] |
| 72 to 74 °C | C[C@@H](O)c1nccc(N2CCc3cnc(-c4ccccc4)nc3C2)n1 [Example 87] |
| 79 to 82 °C | C[C@@H](O)c1nccc(N2CCc3ncncc3C2)n1 [Example 253] |
| 60 to 70 °C | C[C@@H]1CN(c2ccnc(N3CCN(C)CC3)n2)C[C@H](C)N1c1ccnc([C@@H](C)O)n1 [Example 202, 1R-(4-{2R,6S-Dimethyl-4-[2-(4-methyl-piperazin-1-yl)-pyrimidin-4-yl]-piperazin-1-yl}-pyrimidin-2-yl)-ethanol] |
| 156 to 158 °C | Cc1nc2c(c(Oc3ccccc3)n1)CCN(c1ccnc([C@@H](C)O)n1)C2 [Example 97] |
| 153 to 155 °C | C[C@@H]1CN(c2ccnc([C@@H](C)O)n2)[C@@H](C)CN1c1ccnc([C@@H](C)O)n1 [Example 4, 1R-(4-{4-[2-(1R-Hydroxy-ethyl)-pyrimidin-4-yl]-2R,S-dimethyl-piperazin-1-yl}-pyrimidin-2-yl)-ethanol] |
| 231 to 233 °C | C[C@@H]1CN(c2nc3ncccc3o2)C[C@H](C)N1c1ccnc([C@@H](C)O)n1 [Example 31, 1R-[4-(2R,6S-Dimethyl-4-oxazolo-[4,5-b]pyridin-2-yl-piperazin-1-yl)-pyrimidin-2-yl]-ethanol] |
| 141.5 to 142.5 °C | Cc1cc(C)nc(N2[C@H](C)CN(c3ccnc([C@@H](C)O)n3)C[C@@H]2C)n1 [Example 66, 1R-{4-[4-(4,6-Dimethyl-pyrimidin-2-yl)-3R,5S-dimethyl-piperazin-1-yl]-pyrimidin-2-yl}-ethanol] |
| 181 to 182 °C | C[C@@H]1CN(c2nccc(-n3cncn3)n2)C[C@H](C)N1c1ccnc([C@@H](C)O)n1 [Example 196, 1R-{4-[2R,6S-Dimethyl-4-(4-[1,2,4]triazol-1-yl-pyrimidin-2-yl)-piperazin-1-yl]-pyrimidin-2-yl}-ethanol] |
| 157 to 159 °C | Cc1nc(C)nc(N2[C@H](C)CN(c3ccnc([C@@H](C)O)n3)C[C@@H]2C)n1 [Example 242, 1R-{4-[4-(4,6-Dimethyl-[1,3,5]triazin-2-yl)-3R,5S-dimethyl-piperazin-1-yl]-pyrimidin-2-yl}-ethanol] |
| 78 to 82 °C | C[C@@H]1CN(c2ncnc(N3CCOCC3)n2)C[C@H](C)N1c1ccnc([C@@H](C)O)n1 [Example 212, 1R-{4-[2R,6S-Dimethyl-4-(4-morpholino-4-yl-[1,3,5]triazin-2-yl)-piperazin-1-yl]-pyrimidin-2-yl}-ethanol] |
| 161 to 162 °C | COc1nc(C)nc(N2[C@H](C)CN(c3ccnc([C@@H](C)O)n3)C[C@@H]2C)n1 [Example 213, 1R-{4-[4-(4-Methoxy-6-methyl-[1,3,5]triazin-2-yl)-3R,5S-dimethylpiperazin-1-yl]-pyrimidin-2-yl}-ethanol] |
| 61 to 70 °C | C[C@@H]1CN(c2ccnc(-c3cccnc3)n2)C[C@H](C)N1c1ccnc([C@@H](C)O)n1 [Example 201, 1R-{4-[2R,6S-Dimethyl-4-(2-pyridin-3-yl-pyrimidin-4-yl)-piperazin-1-yl]-pyrimidin-2-yl}-ethanol] |
| 123 to 127 °C | CC(=O)c1nccc(N2[C@H](C)CN(c3ccnc([C@@H](C)O)n3)C[C@@H]2C)n1 [Example 45, 1-(4-{4-[2-(1R-Hydroxy-ethyl)-pyrimidin-4-yl]-2R,6S-dimethyl-piperazin-1-yl}-pyrimidin-2-yl)-ethanone] |
| > 235 °C (dec.) | CC(=O)c1nccc(N2C[C@@H](C)N(c3ccnc(C(C)=O)n3)[C@@H](C)C2)n1 [Example 63, 1-{4-[4-(2-Acetyl-pyrimidin-4-yl)-2R*,6S*-dimethyl-piperazin-1-yl]-pyrimidin-2-yl}-ethanone] |
| 138 to 140 °C | C[C@@H]1CN(c2ccnc(C(C)(C)O)n2)C[C@H](C)N1c1ccnc([C@@H](C)O)n1 [Example 34, 2-(4-{4-[2-(1R-Hydroxy-ethyl)-pyrimidin-4-yl]-3R,5S-dimethyl-piperazin-1-yl}-pyrimidin-2-yl)-propan-2-ol] |
| 68 to 70 °C | C[C@@H](O)c1nccc(N2CCN(Cc3ccccn3)CC2)n1 [Example 182, (R)-1-[4-(4-Pyridin-2-ylmethyl-piperazin-1-yl)-pyrimidin-2-yl]-ethanol] |
| 204 to 207 °C | C[C@@H]1CN(c2nc3cccnc3o2)C[C@H](C)N1c1ccnc([C@@H](C)O)n1 [Example 33, 1R-[4-(2R,6S-Dimethyl-4-oxazolo[5,4-b]pyridin-2-yl-piperazin-1-yl)-pyrimidin-2-yl]-ethanol] |
| 178 to 181 °C | C[C@@H](O)c1nccc(N2CCN(c3ccnc(CO)n3)[C@@H](C)C2)n1 [Example 37, 1R-{4-[4-(2-Hydroxymethyl-pyrimidin-4-yl)-3S-methyl-piperazin-1-yl]-pyrimidin-2-yl}-ethanol] |
| 181 to 182 °C | C[C@@H]1CN(c2ccnc([C@@H](C)O)n2)C[C@H](C)N1c1ccnc(N2CCN(C)CC2)n1 [Example 208, 1R-(4-{3R,5S-Dimethyl-4-[2-(4-methyl-piperazin-1-yl)-pyrimidin-4-yl]-piperazin-1-yl}-pyrimidin-2-yl)-ethanol] |
